From patent US20160016907A1, “PYRIDINE DERIVATIVES AS MUSCARINIC M1 RECEPTOR POSITIVE ALLOSTERIC MODULATORS” (PFIZER INC., priority 2014, published 2016) come the findings set out here.

The target in the assay is T1, human M1 muscarinic acetylcholine receptors (Homo sapiens, UniProt P11229).
T1 sequence (P11229 1-460): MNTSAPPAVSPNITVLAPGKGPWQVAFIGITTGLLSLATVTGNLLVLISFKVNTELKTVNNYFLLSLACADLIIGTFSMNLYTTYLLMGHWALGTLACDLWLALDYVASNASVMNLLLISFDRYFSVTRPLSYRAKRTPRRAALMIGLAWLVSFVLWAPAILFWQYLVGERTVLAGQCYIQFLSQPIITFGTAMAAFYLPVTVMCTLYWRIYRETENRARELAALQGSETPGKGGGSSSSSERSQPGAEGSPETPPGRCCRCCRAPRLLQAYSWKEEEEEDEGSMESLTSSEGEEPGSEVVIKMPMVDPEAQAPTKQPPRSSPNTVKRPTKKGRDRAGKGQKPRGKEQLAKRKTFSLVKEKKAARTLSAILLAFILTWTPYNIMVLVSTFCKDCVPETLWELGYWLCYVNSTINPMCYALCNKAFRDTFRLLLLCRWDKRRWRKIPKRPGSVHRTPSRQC
The assay is described as follows: M1 FLIPR assay (PAM, intracellular calcium). It is filed as cell-based. As to conditions: potentiation of EC10-EC30 acetylcholine, values marked a: geometric mean of ≧7 determinations, read-out: M1 PAM Inflection Point (μM) Geometric mean of 2-6 determinations (unless otherwise indicated). The method, then: This assay was designed to select and characterize compounds that affect the activity of human M1 muscarinic acetylcholine receptors (Similar M1 PAM FLIPR assays can be found, for example, at U.S. Pat. No. 8,664,234). Human M1 receptors were stably expressed in Chinese hamster ovary (CHO) cells (HD Bioscience). The effect of test compounds on intracellular calcium was measured on an FLIPR Tetra (Molecular Devices) using the Fluo-8, AM calcium dye (Molecular Probes) with a red dye quenching agent (Sigma).
CHO cells expressing hM1 cells had been previously cultured and frozen in assay ready vials. Cell vials were thawed, then plated at a density of 10,000 cells per well in a 384 well black wall, clear bottom plate (Greiner #781090) and incubated overnight at 37 degrees C. with 5% CO2. Cells were grown and plated in F12 nutrient media (Gibco BRL #21700-075) supplemented with 10% FBS (Hyclone #CH30160.03) and Pen/Strep (Gibco #15070-063).
After overnight incubation, cell plates were removed from the incubator and the growth media was discarded and replaced with loading solution containing the following: 2 μM Fluo-8-AM (Molecular Probes #F14242), 2 mM Probenecid (Sigma #P8761), lx Acid Red 1 (Sigma #210633), in HBSS buffer containing (grams/L): 0.1 CaCl2, 0.1 MgCl2*6H2O, 0.049 MgSO4, 0.4 KCl, 0.06 KH2PO4, 8.06 NaCl, 0.12 Na2HPO4*12H2O, 1.1 D-glucose*H2O, 0.35 NaHCO3, 4.766 HEPES, pH 7.4. The plate was incubated in the loading solution at 37 degrees C. in the dark for 1 hour.
Test compounds were initially prepared as 100% DMSO stock solutions, then transferred and serially diluted in 384-well compound plates (Greiner #784201). Each compound was tested at 10 concentrations in duplicate per experiment. Positive and negative controls for positive allosteric modulator evaluation were 30 μM acetylcholine (Ach) and an EC10-EC30 concentration of acetylcholine, approximately 2 nM but could be adjusted for each experiment to maintain the EC10-EC30 range.
After the 1-hour dye loading incubation, test compounds were added to the cell plate containing Fluo-8. Approximately 10 minutes after compound addition, an EC10-EC30 concentration of acetylcholine was added to each well and the fluorescence measured to determine the PAM potentiation of the compound.
Data was exported from the FLIPR Tetra as maximum fluorescence/minimum fluorescence for each well. The percent effect for each compound well was determined using the mean values for the positive and negative controls on each plate for each read. Percent effect was 100*(compound negative control)/(positive control negative control). Dose response curves were fitted to the compound percent effect data using a 4-parameter logistic fit model to determine PAM (positive allosteric modulator) Inflection Point values. Compounds with inverted U dose response curves had the concentrations greater than the concentration giving the peak response excluded from the fit. Data was reported as Inflection Point. The compounds of Examples 1-72 had activity according to this assay, generally with an Inflection Point (IP) of 10 μM or less (using Inflection Point as a measure of activity). Such a result is indicative of the intrinsic activity of the compounds of the invention as M1 allosteric modulators.
Background: Calcium assays in cells follow changes in intracellular calcium, usually with a dye or a luminescent sensor.

Where a name gives a salt, the structure may show the parent alone.

In the case of `Cc1cnc(C(=O)NC2CCOCC2O)cc1Cc1ccc(-c2cncs2)cc1` (single isomer, unassigned; ent-1) [Example 4, N-[(3,4-trans)-3-Hydroxytetrahydro-2H-pyran-4-yl]-5-methyl-4-[4-(1,3-thiazol-5-yl)benzyl]pyridine-2-carboxamide, ENT-1], the EC50 was 8.11 µM.

For the molecule `Cc1cnc(C(=O)N[C@H]2C[C@H](CO)C2)cc1Cc1ccc(-n2cccn2)cc1` [Example 26, N-[trans-3-(hydroxymethyl)cyclobutyl]-5-methyl-4-[4-(1H-pyrazol-1-yl)benzyl]pyridine-2-carboxamide], the EC50 is 5.04 µM.

As for `Cc1noc(CNC(=O)c2cc(Cc3ccc(-n4cccn4)cc3)c(C)cn2)n1` [Example 31, 5-methyl-N-[(3-methyl-1,2,4-oxadiazol-5-yl)methyl]-4-[4-(1H-pyrazol-1-yl)benzyl]pyridine-2-carboxamide], the EC50 came to 8.63 µM.

For the molecule `O=C(N[C@H]1CCOC[C@@H]1O)c1cc(Cc2ccc(-n3cccn3)cc2)c(OC(F)F)cn1` [Example 62, 5-(difluoromethoxy)-N-[(3R,4S)-3-hydroxytetrahydro-2H-pyran-4-yl]-4-[4-(1H-pyrazol-1-yl)benzyl]pyridine-2-carboxamide], the EC50 came to 0.129 µM.

Regarding `Cc1cnc(C(=O)NC[C@H](C)O)cc1Cc1ccc(-n2cccn2)cc1` [Example 36, N-[(2S)-2-hydroxypropyl]-5-methyl-4-[4-(1H-pyrazol-1-yl)benzyl]pyridine-2-carboxamide], the EC50 is 6.65 µM.

For `Cc1cnc(C(=O)N[C@H]2CCCC[C@@H]2O)cc1Cc1ccc(-n2cccn2)cc1` [Example 18, N-[(1S,2S)-2-Hydroxycyclohexyl]-5-methyl-4-[4-(1H-pyrazol-1-yl)benzyl]pyridine-2-carboxamide], the EC50 came to 0.092 µM.

Regarding `Cc1cnc(NC(=O)c2cc(Cc3ccc(-n4cccn4)cc3)c(C)cn2)nc1` [Example 24, 5-methyl-N-(5-methylpyrimidin-2-yl)-4-[4-(1H-pyrazol-1-yl)benzyl]pyridine-2-carboxamide], the EC50 was 4.39 µM.

Regarding `Cc1cnc(C(=O)NCC2CCO2)cc1Cc1ccc(-n2cccn2)cc1` (stereo not drawn) [Example 45, 5-methyl-N-(oxetan-2-ylmethyl)-4-[4-(1H-pyrazol-1-yl)benzyl]pyridine-2-carboxamide], the EC50 was found to be 7.21 µM.

For the molecule `Cc1cnc(C(=O)NCC2CCCO2)cc1Cc1ccc(-n2cccn2)cc1` (stereo not drawn) [Example 35, 5-methyl-4-[4-(1H-pyrazol-1-yl)benzyl]-N-(tetrahydrofuran-2-ylmethyl)pyridine-2-carboxamide], the EC50 came out at 2.73 µM.

On to `Cc1nc(-c2ccc(Cc3cc(C(=O)N[C@H]4CCOC[C@@H]4O)ncc3C)cc2)cs1` [Example 69, N-[(3R,4S)-3-hydroxytetrahydro-2H-pyran-4-yl]-5-methyl-4-[4-(2-methyl-1,3-thiazol-4-yl)benzyl]pyridine-2-carboxamide], for which the EC50 amounted to 0.048 µM.

`Cc1cnc(C(=O)NC2CCCCC2O)cc1Cc1ccc(-n2cccn2)cc1` (single isomer, unassigned; (-)) [Example 12, (−)-N-[(1,2-cis)-2-Hydroxycyclohexyl]-5-methyl-4-[4-(1H-pyrazol-1-yl)benzyl]pyridine-2-carboxamide]: the EC50 stood at 0.96 µM.

Consider `Cc1nc(C(=O)N[C@H]2CCCC[C@@H]2O)cc(Cc2ccc(-n3cccn3)cc2)c1Cl` [Example 17, 5-Chloro-N-[(1S,2S)-2-hydroxycyclohexyl]-6-methyl-4-[4-(1H-pyrazol-1-yl)benzyl]pyridine-2-carboxamide], for which the EC50 is 0.191 µM.

As to `Cc1cnc(C(=O)NCc2ccon2)cc1Cc1ccc(-n2cccn2)cc1` [Example 42, 5-methyl-N-(1,2-oxazol-3-ylmethyl)-4-[4-(1H-pyrazol-1-yl)benzyl]pyridine-2-carboxamide], the EC50 stood at 8.13 µM.

As to `Cc1cnc(C(=O)NC2CCOCC2O)cc1Cc1ccc(-c2cncs2)cc1` (single isomer, unassigned; ent-2) [Example 5, N-[(3,4-trans)-3-Hydroxytetrahydro-2H-pyran-4-yl]-5-methyl-4-[4-(1,3-thiazol-5-yl)benzyl]pyridine-2-carboxamide, ENT-2], the EC50 turned out to be 0.18 µM.

Consider `Cc1cnc(C(=O)NC[C@@H]2CCCO2)cc1Cc1ccc(-n2cccn2)cc1` [Example 16, 5-Methyl-4-[4-(1H-pyrazol-1-yl)benzyl]-N-[(2S)-tetrahydrofuran-2-ylmethyl]pyridine-2-carboxamide, formate salt], for which the EC50 was 1.82 µM.

Take `Cc1cnc(C(=O)NCC2(O)CCC2)cc1Cc1ccc(-n2cccn2)cc1` [Example 44, N-[(1-hydroxycyclobutyl)methyl]-5-methyl-4-[4-(1H-pyrazol-1-yl)benzyl]pyridine-2-carboxamide]: the EC50 came to 2.7 µM.

`Cc1cnc(C(=O)NCC(=O)N(C)C)cc1Cc1ccc(-n2cccn2)cc1` [Example 41, N-[2-(dimethylamino)-2-oxoethyl]-5-methyl-4-[4-(1H-pyrazol-1-yl)benzyl]pyridine-2-carboxamide]: the EC50 was 8.03 µM.

In the case of `COc1cnc(C(=O)N[C@H]2CCOC[C@@H]2O)cc1Cc1ccc(-n2cccn2)cc1` [Example 15, N-[(3R,4S)-3-Hydroxytetrahydro-2H-pyran-4-yl]-5-methoxy-4-[4-(1H-pyrazol-1-yl)benzyl]pyridine-2-carboxamide], the EC50 was found to be 0.065 µM.

For `COc1cnc(C(=O)N[C@H]2CCCC[C@@H]2O)cc1Cc1ccc(-c2coc(C)n2)cc1` [Example 72, N-[(1S,2S)-2-hydroxycyclohexyl]-5-methoxy-4-[4-(2-methyl-1,3-oxazol-4-yl)benzyl]pyridine-2-carboxamide], the EC50 turned out to be 0.142 µM.

With `COc1ccc(Cc2cc(C(=O)N[C@H]3CCCC[C@@H]3O)nc(C)c2Cl)cc1` [Example 25, 5-chloro-N-[(1S,2S)-2-hydroxycyclohexyl]-4-(4-methoxybenzyl)-6-methylpyridine-2-carboxamide], the EC50 came to 1.14 µM.

In the case of `Cc1cnc(C(=O)N[C@H]2CCOC[C@@H]2O)cc1Cc1ccc(-c2cnn(C)c2)cc1` [Example 67, N-[(3R,4S)-3-hydroxytetrahydro-2H-pyran-4-yl]-5-methyl-4-[4-(1-methyl-1H-pyrazol-4-yl)benzyl]pyridine-2-carboxamide], the EC50 stood at 0.052 µM.

As for `Cc1cnc(C(=O)N[C@H]2CCOC[C@@H]2O)cc1Cc1ccc(-c2cnn(C)c2)nc1` [Example 65, N-[(3R,4S)-3-hydroxytetrahydro-2H-pyran-4-yl]-5-methyl-4-{[6-(1-methyl-1H-pyrazol-4-yl)pyridin-3-yl]methyl}pyridine-2-carboxamide], the EC50 worked out at 0.18 µM.

Turning to `Cc1cnc(C(=O)N[C@H]2CCOC[C@@H]2O)cc1Cc1ccc(-c2ccn(C)n2)cc1` [Example 6, N-[(3R,4S)-3-Hydroxytetrahydro-2H-pyran-4-yl]-5-methyl-4-[4-(1-methyl-1H-pyrazol-3-yl)benzyl]pyridine-2-carboxamide], the EC50 amounted to 0.142 µM.

For the molecule `Cc1nc(-c2ccc(Cc3cc(C(=O)NC4CCOCC4O)ncc3C)cc2)co1` (single isomer, unassigned; (-)) [Example 10, (−)-N-[(3,4-trans)-3-Hydroxytetrahydro-2H-pyran-4-yl]-5-methyl-4-[4-(2-methyl-1,3-oxazol-4-yl)benzyl]pyridine-2-carboxamide], the EC50 amounted to 6.34 µM.
